Reference: patent US7524849B2, “5-arylpyrimidines as anticancer agents” (Wyeth Holdings Corporation, priority 2003, dated 2009)

Columns and labels:
HL-60/ADR cells = assay: MTS cytotoxicity test with HL-60/ADR cells (MRP1); format: cell-based, human; settings: for IC50: HL-60/ADR cells, mean of 2 experiments; for Ratio: IC50 on HL-60/ADR cells/IC50 on HL-60 cells
Source text: (§1) Human cancer cell lines, unless otherwise noted, are obtained from the American Type Culture Collection (Rockville, Md.). The following drug-sensitive parental cell lines, and their derived drug-resistant counterparts, are obtained from the originators as listed: (a) S1 (parental line from a subclone of human colon carcinoma line LS174T) and derived S1-M1-3.2 (herein called S1-M1) which expresses the MXR drug transporter protein, are provided by Dr. L. Greenberger, Wyeth Research (Rabindran, S. K., He, H., Singh, M., Brown, E., Collins, K. I., Annable, T., and Greenberger, L. M. Reversal of a novel multidrug resistance mechanism in human colon carcinoma cells by fumitremorgin C. Cancer Res., 58: 5850-5858, 1998); (b) parental HL-60 human promyelocytic leukemia line and derived HL-60/ADR, which expresses the MRP1 drug transporter protein, are provided by Dr. M. Center, University of Kansas (McGrath, T., and Center, M. S. Adriamycin resistance in HL60 cells in the absence of detectable P-glycoprotein. Biochem. Biophys. […] J. Biol. Chem., 261: 7762-7770, 1986) via Dr. L. Greenberger, Wyeth Research.
(§2) The assay, which is sold in kit form by Promega (Madison, Wis.; CellTiter 96 AQueous Non-Radioactive Cell Proliferation Assay), is based on the conversion by viable cells, but not by dead cells, of the tetrazolium salt, MTS (3-(4,5-dimethylthiazol-2-yl)-5-(3-carboxymethoxyphenyl)-2-(4-sulphophenyl)-2H-tetrazolium, inner salt), into a water-soluble colored formazan which is detected by spectrophotometry. Compounds are tested at nine concentrations, in order to determine IC50 values. For the test procedure, cells are harvested by trypsinization, washed, counted and distributed to wells of 96-well flat-bottom microtiter plates at 1000 cells per well in 200 μL of medium. In addition, one row of wells on a separate plate receives cells as above (“time 0” plate). All plates are incubated at 37° in humidified 5% CO2 in air for about 24 hr.
(§3) On day 2, compounds for test are diluted and added to wells. Compounds are dissolved in DMSO at 10 mg/mL. For each compound, nine serial 2-fold dilutions are prepared in DMSO. Ten μL of each dilution in DMSO are transferred to 100 μL of medium, mixed well, and then 5 μL of this dilution are transferred in quadruplicate to wells containing cells. […] Plates are returned to the incubator for three days. At the time of drug addition to the experimental plates, the MTS assay is run on the “time 0” plate. This produces the “time 0 MTS value” which is related to the number of viable cells per well at the time of drug addition.
(§4) After three days of culture with test compounds (day 5 overall), the MTS assay is done on all wells of the experimental plates. The absorbance values of the quadruplicate sample wells are averaged and divided by the average of the “time 0” values. […] The nine values for each compound are plotted against concentration, and the concentration that produces a relative color yield half way between the maximum and minimum is taken as the IC50 value.
HL-60/ADR cells overexpress the multidrug resistance protein MRP1 which mediates resistance to some chemotherapeutics (Gottesman, M. M., Fojo, T., and Bates, S. E. Multidrug resistance in cancer: role of ATP-dependent transporters. Nature Rev. Cancer, 2: 48-58, 2002). The IC50 values of representative examples of this invention, as well as reference compounds, on HL-60/ADR are compared to values on the sensitive parental HL-60 line.

KB-V1 cells = assay: MTS cytotoxicity test with KB-V1 cells (very high P-glycoprotein); format: cell-based, human; settings: for Ratio VI/KB: IC50 on KB VI cells/IC50 on KB cells; for IC50: KB VI cells, mean of 2 experiments
Source text: as §1, §2, §3, §4

COLO 205 cells = assay: MTS cytotoxicity test with COLO 205 cells; format: cell-based, human; settings: three days with compound
Method in brief: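 COLO 205 human colon carcinoma cells, 1000/well, exposed for three days at 37 °C to nine 2-fold dilutions, top final concentration typically 5 μM. MTS formazan absorbance normalised to a time-0 plate; IC50 taken as concentration halfway between untreated maximum and high-drug minimum.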

[1] = system: highly purified tubulin (tubulin heterodimer); assay: Competitive binding test, [3H]vinblastine; set-up: species or system bovine; settings: competitor 100 μM, [3H]vinblastine 100 nM, percent of binding to control without competitor
Protocol: Medium is RPMI-1640 with L-glutamine, supplemented with 10% heat-inactivated fetal calf serum, 100 units/mL penicillin, and 100 μg/mL streptomycin (Gibco, Grand Island, N.Y.). Microtubule-associated protein (MAP)-rich tubulin, containing about 70% tubulin and 30% MAPs (#ML113), and highly purified tubulin (>99% pure, #TL238), both from bovine brain, are obtained from Cytoskeleton, Inc., Denver, Colo. PEM buffer (80 mM piperazine-N,N′-bis[2-ethanesulfonic acid], pH 6.9, 1 mM ethylene glycol-bis(β-aminoethyl ether)-N,N,N′,N′-tetraacetic acid, 1 mM magnesium chloride) and guanosine 5′-triphosphate (GTP) are also obtained from Cytoskeleton. […] [^3H]vinblastine, specific activity 9.60 Ci/mmol and MicroSpin G-50 columns are obtained from Amersham Biosciences (Piscataway, N.J.). […] Other reagents are obtained from Sigma (St. Louis, Mo.).
The binding of examples of this invention to highly purified tubulin is studied by competitive inhibition methods.
These solutions are incubated at 24° for 1 hr and then applied to MicroSpin G-50 columns which are centrifuged for 2 min at 3000 rpm in an Eppendorf 5415C microfuge. An aliquot of each column effluent (containing tubulin and bound radioligand) is mixed with scintillation fluid and counted in a liquid scintillation spectrometer. […] Quadruplicates are averaged, and the ability of the competitor to inhibit the binding of the radioligand is expressed as a percentage of control binding in the absence of any competitor.

Q: Which results are given for `CNCCCOc1cc(F)c(-c2c(Cl)nc(-c3cnccn3)nc2N[C@@H](C)C(F)(F)F)c(F)c1.Cl` [Example 24a, 6-Chloro-5-{2,6-difluoro-4-[3-(methylamino)propoxy]phenyl}-2-pyrazin-2-yl-N-[(1S)-2,2,2-trifluoro-1-methylethyl]pyrimidin-4-amine hygrogen chloride]?
A: IC50 (HL-60/ADR cells): 6.3 nM; Ratio (HL-60/ADR cells): 1.0; Ratio VI/KB (KB-V1 cells): 58; IC50 (KB-V1 cells): 405 nM; IC50 (COLO 205 cells): 8.9 nM

Q: Which IC50 (HL-60/ADR cells; Homo sapiens, HL60/ADR) does the source give for `CNCCCOc1cc(F)c(-c2c(Cl)nc(-c3ccccn3)nc2N[C@@H](C)C(F)(F)F)c(F)c1.Cl` [Example 29a, 6-Chloro-5-{2,6-difluoro-4-[3-(methylamino)propoxy]phenyl}-2-pyridin-2-yl-N-[(S)-2,2,2-trifluoro-1-methylethyl]pyrimidin-4-amine hydrogen chloride] here?
A: 6.8 nM

Q: What about the Ratio (HL-60/ADR cells) of the same compound?
A: 1.0

Q: And the IC50 (KB-V1 cells; Homo sapiens, KB-V1)?
A: 423 nM

Q: And the “Ratio VI/KB” value (KB-V1 cells)?
A: 69

Q: What about the IC50 (COLO 205 cells; Homo sapiens, 72 h) of the same compound?
A: 5.2 nM

Q: `CNCCCOc1cc(F)c(-c2c(Cl)nc(-n3cccn3)nc2N[C@@H](C)C(F)(F)F)c(F)c1.Cl` [Example 32a, 6-Chloro-5-{2,6-difluoro-4-[3-(methylamino)propoxy]phenyl}-2-(1H-pyrazol-1-yl)-N-[(1S)-2,2,2-trifluoro-1-methylethyl)pyrimidin-4-amine Hydrogen Chloride] was tested. Which IC50 (HL-60/ADR cells; Homo sapiens, HL60/ADR) did it give?
A: 2.2 nM

Q: What about the Ratio (HL-60/ADR cells) of the same compound?
A: 0.8

Q: What about the IC50 (KB-V1 cells; Homo sapiens, KB-V1) of the same compound?
A: 569 nM

Q: And the “Ratio VI/KB” value (KB-V1 cells)?
A: 242

Q: What about the IC50 (COLO 205 cells; Homo sapiens, 72 h) of the same compound?
A: 2.4 nM

Q: Which results are given for `CC(=O)O[C@H]1C(=O)[C@@]2(C)[C@H]([C@H](OC(=O)c3ccccc3)[C@]3(O)C[C@H](OC(=O)[C@H](O)[C@@H](NC(=O)c4ccccc4)c4ccccc4)C(C)=C1C3(C)C)[C@]1(OC(C)=O)CO[C@@H]1C[C@@H]2O` [Paclitaxel, reference compound]?
A: IC50 (HL-60/ADR cells; Homo sapiens, HL60/ADR): 3.5 nM; [3H]Vinblastine binding, Mean [1]: 92 % of control; IC50 (KB-V1 cells; Homo sapiens, KB-V1): 2010 nM; IC50 (COLO 205 cells; Homo sapiens, 72 h): 3.3 nM

Q: For `CC[C@]1(O)C[C@H]2CN(CCc3c([nH]c4ccccc34)[C@@](C(=O)OC)(c3cc4c(cc3OC)N(C=O)[C@H]3[C@@](O)(C(=O)OC)[C@H](OC(C)=O)[C@]5(CC)C=CCN6CC[C@]43[C@@H]65)C2)C1` [Vincristine, reference compound], which IC50 (HL-60/ADR cells; Homo sapiens, HL60/ADR) is on record?
A: 24 nM

Q: And the Ratio (HL-60/ADR cells)?
A: 9.6

Q: And the “[3H]Vinblastine binding, Mean” value [1]?
A: 5 % of control

Q: And the “[3H]Vinblastine binding, Mean” value ([1]; listed as vincristine)?
A: inhibits [^3H]vinblastine binding

Q: And the IC50 (KB-V1 cells; Homo sapiens, KB-V1)?
A: 2040 nM

Q: What about the “Ratio VI/KB” value (KB-V1 cells) of the same compound?
A: 925

Q: And the IC50 (COLO 205 cells; Homo sapiens, 72 h)?
A: 2.6 nM
